Legend:
Format in all cases: in vivo
[1] = system: Surinam grass (Brachiaria decumbens); assay: Test B pre-/postemergence plant response; conditions: for Plant response rating, Surinam Grass: Postemergence
How it was run: (§1)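 Steps: sow seed in loam–sand soil and spray preemergence, or grow plants in peat-based medium to 1–4 leaves (2–18 cm) and spray postemergence; formulation is non-phytotoxic solvent plus surfactant; hold in greenhouse 13–15 days; score visually vs controls, 0 = no effect, 100 = complete control.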

[2] = system: velvetleaf (Abutilon theophrasti); assay: Test B pre-/postemergence plant response; conditions: for Plant response rating, Velvetleaf: Postemergence
How it was run: as §1

[3] = system: blackgrass (Alopecurus myosuroides); assay: Test B pre-/postemergence plant response; conditions: for Plant response rating, Blackgrass: Postemergence
How it was run: as §1

soybean (Glycine max) = assay: Test B pre-/postemergence plant response; conditions: for Plant response rating, Soybean: Postemergence
How it was run: as §1

[4] = system: wheat (Triticum aestivum); assay: Test B pre-/postemergence plant response; conditions: for Plant response rating, Wheat: Postemergence
How it was run: as §1

[5] = system: cocklebur (Xanthium strumarium); assay: Test B pre-/postemergence plant response; conditions: for Plant response rating, Cocklebur: Postemergence
How it was run: as §1

[6] = system: pigweed (Amaranthus retroflexus); assay: Test B pre-/postemergence plant response; conditions: for Plant response rating, Pigweed: Postemergence
How it was run: as §1

wild oat (Avena fatua) = assay: Test B pre-/postemergence plant response; conditions: for Plant response rating, Oat, Wild: Postemergence
How it was run: as §1

kochia (Kochia scoparia) = assay: Test B pre-/postemergence plant response; conditions: for Plant response rating, Kochia: Postemergence
How it was run: as §1

[7] = system: lambsquarters (Chenopodium album); assay: Test B pre-/postemergence plant response; conditions: for Plant response rating, Lambsquarters: Postemergence
How it was run: as §1

[8] = system: chickweed (Stellaria media); assay: Test B postemergence plant response; conditions: for Plant response rating, Chickweed: Postemergence
How it was run: (§2)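 Visual ratings from 0 (no effect) to 100 (complete control), made against controls 13–15 days after treatment, kept in a greenhouse. Compounds were applied postemergence to potted plants at the 1- to 4-leaf stage (2–18 cm).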

[9] = system: canarygrass (Phalaris minor); assay: Test B postemergence plant response; conditions: for Plant response rating, Canarygrass: Postemergence
How it was run: as §2

[10] = system: windgrass (Apera spica-venti); assay: Test B postemergence plant response; conditions: for Plant response rating, Windgrass: Postemergence
How it was run: as §2

[11] = 31 g ai/ha, 0 to 100 scale (0 no effect, 100 complete control)
[12] = 62 g ai/ha, scale 0 to 100 (0 no effect, 100 complete control)
[13] = 125 g ai/ha, scale 0 to 100 (0 no effect, 100 complete control)
[14] = 250 g ai/ha, scale 0 to 100 (0 no effect, 100 complete control), 13 to 15 days
[15] = 62 g ai/ha, postemergence, 0 is no effect, 100 is complete control, 13 to 15 days

Structure (SMILES): Cc1cc(-n2c(-c3cccc(F)c3)ncc(C(=O)C3=C(O)CCCC3=O)c2=O)ccc1F [Compound 191]
- Plant response rating, Surinam Grass [1, 11]: 70
- Plant response rating, Surinam Grass [1, 12]: 85
- Plant response rating, Surinam Grass [1, 13]: 90
- Plant response rating, Surinam Grass [1, 14]: 98
- Plant response rating, Velvetleaf [2, 11]: 75
- Plant response rating, Velvetleaf [2, 12]: 80
- Plant response rating, Velvetleaf [2, 13]: 90
- Plant response rating, Velvetleaf [2, 14]: 100
- Plant response rating, Blackgrass [3, 11]: 30
- Plant response rating, Blackgrass [3, 12]: 45
- Plant response rating, Blackgrass [3, 13]: 50
- Plant response rating, Blackgrass [3, 14]: 60
- Plant response rating, Soybean (soybean (Glycine max); [11]): 90
- Plant response rating, Soybean (soybean (Glycine max); [12]): 95
- Plant response rating, Soybean (soybean (Glycine max); [13]): 100
- Plant response rating, Soybean (soybean (Glycine max); [14]): 100
- Plant response rating, Wheat [4, 11]: 35
- Plant response rating, Wheat [4, 12]: 40
- Plant response rating, Wheat [4, 13]: 55
- Plant response rating, Wheat [4, 14]: 65
- Plant response rating, Cocklebur [5, 11]: 90
- Plant response rating, Cocklebur [5, 12]: 98
- Plant response rating, Cocklebur [5, 13]: 98
- Plant response rating, Cocklebur [5, 14]: 100
- Plant response rating, Pigweed [6, 11]: 80
- Plant response rating, Pigweed [6, 12]: 85
- Plant response rating, Pigweed [6, 13]: 98
- Plant response rating, Pigweed [6, 14]: 100
- Plant response rating, Oat, Wild (wild oat (Avena fatua); [11]): 50
- Plant response rating, Oat, Wild (wild oat (Avena fatua); [12]): 60
- Plant response rating, Oat, Wild (wild oat (Avena fatua); [13]): 70
- Plant response rating, Oat, Wild (wild oat (Avena fatua); [14]): 80
- Plant response rating, Kochia (kochia (Kochia scoparia); [11]): 5
- Plant response rating, Kochia (kochia (Kochia scoparia); [12]): 10
- Plant response rating, Kochia (kochia (Kochia scoparia); [13]): 25
- Plant response rating, Kochia (kochia (Kochia scoparia); [14]): 35
- Plant response rating, Lambsquarters [7, 11]: 75
- Plant response rating, Lambsquarters [7, 12]: 80
- Plant response rating, Lambsquarters [7, 13]: 98
- Plant response rating, Lambsquarters [7, 14]: 100
- Plant response rating, Chickweed [8, 11]: 98
- Plant response rating, Chickweed [8, 12]: 98
- Plant response rating, Chickweed [8, 13]: 98
- Plant response rating, Chickweed [8, 14]: 100
- Plant response rating, Canarygrass [9, 11]: 20
- Plant response rating, Canarygrass [9, 12]: 50
- Plant response rating, Canarygrass [9, 13]: 60
- Plant response rating, Canarygrass [9, 14]: 85
- Plant response rating, Windgrass [10, 11]: 55
- Plant response rating, Windgrass [10, 12]: 85
- Plant response rating, Windgrass [10, 13]: 85
- Plant response rating, Windgrass [10, 14]: 100

Structure (SMILES): O=C1CCCC(O)=C1C(=O)c1cnc(-c2ccccc2)n(C2CCCC2)c1=O [Compound 131]
- Plant response rating, Surinam Grass ([1]; 16 g ai/ha, 0 to 100 scale): 15
- Surinam Grass plant response rating (0 to 100 scale) [1, 15]: 60
- Plant response rating, Surinam Grass [1, 11]: 20
- Plant response rating, Surinam Grass [1, 13]: 65
- Plant response rating, Velvetleaf ([2]; 16 g ai/ha, 0 to 100 scale): 70
- Velvetleaf plant response rating (0 to 100 scale) [2, 15]: 85
- Plant response rating, Velvetleaf [2, 11]: 80
- Plant response rating, Velvetleaf [2, 13]: 98
- Plant response rating, Blackgrass ([3]; 16 g ai/ha, 0 to 100 scale): 0
- Blackgrass plant response rating (0 to 100 scale) [3, 15]: 0
- Plant response rating, Blackgrass [3, 11]: 0
- Plant response rating, Blackgrass [3, 13]: 0
- Plant response rating, Soybean (soybean (Glycine max); 16 g ai/ha, 0 to 100 scale): 75
- Soybean plant response rating (0 to 100 scale) (soybean (Glycine max); [15]): 95
- Plant response rating, Soybean (soybean (Glycine max); [11]): 75
- Plant response rating, Soybean (soybean (Glycine max); [13]): 98
- Plant response rating, Wheat ([4]; 16 g ai/ha, 0 to 100 scale): 0
- Wheat plant response rating (0 to 100 scale) [4, 15]: 0
- Plant response rating, Wheat [4, 11]: 0
- Plant response rating, Wheat [4, 13]: 0
- Plant response rating, Cocklebur ([5]; 16 g ai/ha, 0 to 100 scale): 80
- Cocklebur plant response rating (0 to 100 scale) [5, 15]: 98
- Plant response rating, Cocklebur [5, 11]: 95
- Plant response rating, Cocklebur [5, 13]: 100
- Plant response rating, Pigweed ([6]; 16 g ai/ha, 0 to 100 scale): 60
- Pigweed plant response rating (0 to 100 scale) [6, 15]: 95
- Plant response rating, Pigweed [6, 11]: 90
- Plant response rating, Pigweed [6, 13]: 100
- Plant response rating, Oat, Wild (wild oat (Avena fatua); 16 g ai/ha, 0 to 100 scale): 0
- Oat, Wild plant response rating (0 to 100 scale) (wild oat (Avena fatua); [15]): 0
- Plant response rating, Oat, Wild (wild oat (Avena fatua); [11]): 0
- Plant response rating, Oat, Wild (wild oat (Avena fatua); [13]): 0
- Plant response rating, Kochia (kochia (Kochia scoparia); 16 g ai/ha, 0 to 100 scale): 20
- Kochia plant response rating (0 to 100 scale) (kochia (Kochia scoparia); [15]): 60
- Plant response rating, Kochia (kochia (Kochia scoparia); [11]): 35
- Plant response rating, Kochia (kochia (Kochia scoparia); [13]): 75
- Plant response rating, Lambsquarters ([7]; 16 g ai/ha, 0 to 100 scale): 75
- Lambsquarters plant response rating (0 to 100 scale) [7, 15]: 95
- Plant response rating, Lambsquarters [7, 11]: 85
- Plant response rating, Lambsquarters [7, 13]: 98
- Plant response rating, Chickweed ([8]; 16 g ai/ha, 0 to 100 scale): 45
- Chickweed plant response rating (0 to 100 scale) [8, 15]: 80
- Plant response rating, Chickweed [8, 11]: 65
- Plant response rating, Chickweed [8, 13]: 90
- Plant response rating, Canarygrass ([9]; 16 g ai/ha, 0 to 100 scale): 0
- Canarygrass plant response rating (0 to 100 scale) [9, 15]: 0
- Plant response rating, Canarygrass [9, 11]: 0
- Plant response rating, Canarygrass [9, 13]: 0
- Plant response rating, Windgrass ([10]; 16 g ai/ha, 0 to 100 scale): 0
- Windgrass plant response rating (0 to 100 scale) [10, 15]: 0
- Plant response rating, Windgrass [10, 11]: 0
- Plant response rating, Windgrass [10, 13]: 5

Source: patent US8952024B2, “Herbicidal pyrimidone derivatives” (E I du Pont de Nemours and Company, priority 2009, dated 2015)
